The source of these data is article PMC9862026, “In Vivo Toxicity, Redox-Modulating Capacity and Intestinal Permeability of Novel Aroylhydrazone Derivatives as Anti-Tuberculosis Agents” (Pharmaceutics, 2022).

Data set [1] has as its system male Jcl:ICR mice. Nature of the data set: Sub-acute toxicity, 14 days oral: complete blood count. Format: in vivo. The following applies: 50 mg/kg oral. As to the method: (§1) The sub-acute toxicity effects were assessed after repeated (14 days) oral administration to male mice. […] The experiments were performed with male Jcl: ICR mice at the same age of 6 weeks and weighing approximately 30–35 g, in which the substances were administered daily for 14 days orally with a gastric tube at approximately the same time of the day. The compounds were solubilized with Tween 80 (0.1%) in distilled water and administered orally in a volume of 0.1 mL per 10.0 g. Animals were observed daily for behavioral changes and signs of toxicity. All results were compared with the positive control isoniazid (INH).
(§2) Serum biochemical parameters were assessed as follows.

Data set [2] has as its system male Jcl:ICR mice. In words: Sub-acute toxicity, 14 days oral: serum biochemical parameters. The following applies: 50 mg/kg oral. The format is in vivo. The procedure:
as §1, §2

The subject of data set [3] is liver of mice. In words: Pathomorphological evaluation of liver. Format: in vivo. The following applies: 50 mg/kg oral, 14 days. As to the method:
(§3) Tissues from the liver, kidney and small intestine of the mice from all groups were collected post-mortem and fixed in 10% buffered formalin for 48 h. fixed tissues were processed according to the classical paraffin method. The cutting of the paraffin blocks was performed using a paraffin rotary microtome Leica RM 2255 at a slice thickness of 5 µm. The sections were stained with hematoxylin and eosin (H&E). Histological changes were examined and imaged with a Leica DM2500 light microscope equipped with a Leica MC120HD digital camera and also with Euromex BioBlue (Belgium) digital camera

For data set [4], the system named is kidney of mice. In words: Pathomorphological evaluation of kidney. The format is in vivo. The following applies: 50 mg/kg oral, 14 days. As to the method:
as §3

Data set [5] deals with small intestine of mice. In words: Pathomorphological evaluation of small intestine. The format is in vivo. The following applies: 50 mg/kg oral, 14 days. As to the method: as §3
Data set [6] has as its system GSH in the liver homogenate. In words: Total glutathione in liver homogenate. The following applies: 50 mg/kg oral, 14 days. The format is in vivo, mice. As to the method: as §2
According to Rahman et al. total glutathione (tGSH) concentration was determined. In the reaction between GSH and 5,5′-dithiobis-2-nitrobenzoic acid (DTNB), the rate of formation of colored substance, 5′-thio-2-nitrobenzoic acid (TNB), is proportional to the concentration of tGSH in the sample. The maximal absorption of colored TNB is at 412 nm. The concentration of tGSH was calculated using oxidized glutathione as a reference standard and was expressed as ng/mg protein.

Data set [7] has as its system SOD in the liver supernatant. Nature of the data set: SOD activity in liver supernatant. The format is in vivo, mice. The following applies: 50 mg/kg oral, 14 days. The procedure:
as §2
SOD activity was measured by the method of Beauchamp and Fridovich. Superoxide anion radicals generated photochemically for 7 min, reduced nitro blue tetrazolium (NBT) obtaining insoluble formazan in violet color. The reduction of NBT inhibition in the presence of different enzyme concentrations was read at 560 nm vs. control of reaction mixture. The amount of enzyme performing 50% inhibition of NBT reduction is accepted as a unit of activity (U/mg protein).

Data set [8] concerns Glutathione peroxidase in the liver supernatant. Nature of the data set: Glutathione peroxidase activity in liver supernatant. Format: in vivo, mice. The following applies: 50 mg/kg oral, 14 days. As to the method:
as §2
The Glutathione Peroxidase Cellular Activity Assay Kit (Cat. No. CGP1) and Glutathione Reductase Assay Kit (Cat. No. GRSA) were used to measure the activities of glutathione-related enzymes.

A short description of data set [9]: GIT PAMPA intestinal permeability (Double-Sink protocol). Format: in vitro ADME. The procedure: The intestinal permeability of isoniazid and the newly synthesized derivatives was measured by PAMPA Permeability Analyzer (pION Inc., Billerica, MA, USA) following the Double-Sink™ Protocol. PAMPA assay kits were purchased from pION Inc. According to the protocol, the donor compartment of the “sandwich” is loaded with compound solutions adjusted to three different pH values of 5.0, 6.2, and 7.4. The acceptor wells are filled with an ASB of fixed pH 7.4, containing chemical scavengers that simulate the effect of serum proteins. In the central circulation, pH 7.4 is constantly maintained, and the blood flow, as well as the serum proteins, support the one-directional process of absorption. Reference spectra (ketoprofen, antipyrine, and ranitidine) were used to assess the transfer of compounds from the donor to the acceptor phase. The permeation ability was estimated based on permeability coefficient values Pe (10^−6 cm/s), presented in logarithmic terms (−logPe). Values of −logPe < 5 were accepted as indicative of highly permeable compounds. When −logPe acquired values between 5 and 6, compounds were considered as medium permeable, and if −logPe > 6–as low permeable. Experiments were performed in triplicate and permeation coefficients Pe (−logPe values, respectively) are calculated using PAMPA Explorer Command Software (Version 3.8).

The test system of data set [10] is MDA in the liver homogenate. In words: Endogenous MDA (spontaneous lipid peroxidation) in liver homogenate. The following applies: 50 mg/kg oral, 14 days; vs controls.
Procedure: On day 14, the animals were anesthetized with ketamine/ xylazine and decapitated. […] Livers were taken to assess oxidative stress and antioxidant status in the study groups.
For the in vivo experiments (spontaneous lipid peroxidation) the postnuclear homogenates of the liver (mg protein/mL) in 0.15 M KCl—10 mM potassium phosphate buffer, pH 7.2, were heated for 15 min at 100 °C in the presence of 40% TCA + 5N HCl + 2% thiobarbituric acid (2:1:2 v/v) for color developing. After cooling and centrifugation, the absorbance was read at 532 nm against dd H2O as blank. The values were expressed in nmoles malondialdehyde (MDA) per mg protein, with a molar extinction coefficient of 1.56 × 10^−5 M^−1cm^−1.
Data set [11] relates to Fe^2+-asc.—induced lipid peroxidation in brain homogenate. Nature of the data set: Fe-induced lipid peroxidation inhibition assay in vitro (TBARS). Format: biochemical. The following applies: model system of brain homogenate, 10 mM FeCl3 and 10 mM ascorbic acid. The procedure: Malondialdehyde as a marker of lipid peroxidation was determined by the formation of endogenous lipid peroxidation products, reacting with 2-thiobarbituric acid (TBARS), and detected spectrophotometrically (λmax = 532 nm) adapted by Mileva et al.. The method is based on the reaction of thiobarbituric acid (TBA) with the final products of lipids oxidation and formation of malondialdehyde (MDA). […] After that to the samples was added 0.6 mL a mixture of trichloroacetic acid (TCA)—TCA:HCl:TBA in 2:1:2 ratio and boiled in a water bath. After cooling and centrifugation at 3000 nrp the obtained color complex was read spectrophotometrically at A532 nm against the appropriate blank. The results were expressed in percentage inhibition of lipid peroxidation (received MDA per mg protein content from the control).
(§4) All data are presented as IC50, which gave 50% inhibition of the activities and compared against the activity of Trolox—a common antioxidant, at the same concentrations.

Data set [12] in a line: DPPH assay. The following applies: 0.1 mM DPPH in methanol, 30 min. The procedure:
DPPH (2,2′-diphenyl-1-picrylhydrazyl radical) assay analysis of pure compounds was conducted by the method described by Brand-Williams et al.. First, 500 μL of the test solutions were added to 500 μL of a freshly prepared solution of 0.1 mM DPPH in methanol and incubated in the dark for 30 min. Then the absorbance at 517 nm (A517) was measured against a mixture of DPPH solution and methanol (1:1) as a control.
as §4
In general terms: Loss of DPPH colour is used to gauge radical scavenging.

The nature of data set [13]: ABTS•+ assay. The following applies: 15 min at 37 °C. The procedure:
ABTS (2,2′-azino-bis (3-ethylbenzthiazoline-6-sulphonic acid) (7.0 mM) was mixed with potassium persulfate (2.45 mM) to obtain the cationic radical (ABTS•+) The solution was diluted in methanol (2 mL ABTS•+ + 58 mL methanol). The absorption at 743 nm of the resulting working solution was 1.1 ± 0.02 AU. Then, 1.425 mL of ABTS•+ working solution was added to 75 μL of the test drugs, and the absorption at 743 nm was measured after 15 min of incubation at 37 °C against methanol. A blank containing 75 μL of water instead of the test extract also was measured against methanol.
as §4

Turning to `NNC(=O)c1ccncc1` [INH, isoniazid, reference compound], in data set [1], the HCT was found to be 33.3 ± 2.1 %, the Hgb was 112 ± 2.2 g/L, the PLT is 789 ± 183 10^9/L and the RBC is on record as 5.35 ± 0.2 × 10^12/L. In addition, in [1], the WBC is 9.9 ± 0.54 × 10^9/L, the “increase of leukocytes compared to controls” value is 70%, the “reduction in hematocrit compared to the control group” value is given as 20% and the “reduction in the level of erythrocytes compared to the control group” value worked out at 28%. The “reduction in the level of hemoglobin compared to the control group” value in data set [1] is reported as 21%. In data set [2], the “decrease of albumin compared to controls” value was determined as 23%, the “decrease of total protein compared to controls” value was determined as 26%, the “direct bilirubin higher than controls” value came out at 48% and the “increase of ALAT compared to control animals” value is listed as 67%. Besides, in [2], the “increase of ASAT compared to control animals” value was 52%, the “increase of creatinine compared to controls” value is listed as 29%, the “increase of urea compared to controls” value is listed as 49% and the “total bilirubin higher than controls” value was 40%. Also, in data set [2] (serum), the ALAT turned out to be 96.6 ± 3.1 U/L, the ALB was 21.6 ± 1.7 g/L, the ASAT is reported as 126 ± 5.2 U/L and the CREAT worked out at 126.6 ± 8.2 µmol/L. In data set [2] (serum), this compound yielded a D-Bil of 6.5 ± 0.44 µmol/L, a GLU of 6.4 ± 0.47 mmol/L, a T-Bil of 12.0 ± 0.38 µmol/L and a TP of 43.2 ± 3.1 g/L. Besides, in [2] (serum), the UA was found to be 196 ± 20.7 µmol/L and the UREA is listed as 13.6 ± 0.36 mmol/L. Moreover, in data set [3], the “Lobular inflammatory process and hepatocyte loss” value is reported as “not reported”; the “signs related to initiated fibroblastic process (organ collagenization and fibrosis)” value was “No signs”. Also, the “Pathomorphological findings in the kidney” value in data set [4] is “the curved parts of the distal tubules have a lower upholstered epithelium, wide luminal segments, and preserved histological structure”. For the same compound, in data set [5], the “Pathomorphological findings in the small intestine” value is “there were no defects in the epithelium, reaching and exceeding the muscular layer of the epithelium”; the villous dullness score worked out at 1. The “level of total GSH in liver homogenate” value in [6] is reported as “decreased the level of total GSH”. Further, the glutathione deficiency entry in data set [6] (vs control levels) is given as “about 30%”. The “increase of the activity of SOD in liver” value in [7] was 25%. The “increase of the activity of GPx compared to controls” value in [8] is given as 35%. In [9] (at the given experimental conditions (all tested pH), impermeable), the “−logPe, GIT PAMPA” value was more than 6. The “−logPe, GIT PAMPA” value in data set [9] (donor pH = 5.0, acceptor pH 7.4, Pe in 10^−6 cm/s) is given as 6.226. Moreover, the “−logPe, GIT PAMPA” value in data set [9] (donor pH = 6.2, acceptor pH 7.4, Pe in 10^−6 cm/s) is recorded as 6.591. In data set [9] (donor pH = 7.4, acceptor pH 7.4, Pe in 10^−6 cm/s), the “−logPe, GIT PAMPA” value came out at 6.594. In data set [10], the “increase of the level of MDA in liver homogenate” value is recorded as “more than 35%”.

As to `Cc1c(C)c2c(c(C)c1O)CCC(C)(C(=O)O)O2` (centres unmarked) [Trolox, 6-hydroxy-2,5,7,8-tetramethylchroman-2-carboxylic acid, reference compound], the “Fe^2+-asc.—Induced LP in Liver, IC50” value in data set [11] is reported as 18.2 mg/mL. Also, the “DPPH Scavenging, IC50” value in data set [12] came to 8.92 mg/mL. In addition, in data set [13], the “ABTS Scavenging, IC50” value was found to be 24.8 mg/mL.
